Values of other authors as cited in US20030004116A1, “Noni extract for prevention of disease” (priority 2001, published 2003).

Columns and labels:
[1] = tested on: RSV-NRK cells expressing the src oncogene
[2] = tested on: K-ras-NRK cells; conditions: reversible when compound withdrawn

In the case of `COc1c(C=O)c(O)cc2c1C(=O)c1ccccc1C2=O` [Damnacathal], the effect on cells [1] is listed as “no effect” and the “morphology and cytoskeletal structure” value [2] is listed as “induced normal morphology and cytoskeletal structure”.
